Experimental data: patent US9562035B2, “Benzamide derivative useful as FASN inhibitors for the treatment of cancer” (Janssen Pharmaceutica NV, priority 2013, dated 2017)

Tests used:
[1] = biological target: T1, hFASN enzyme (full length) (Homo sapiens, UniProt P49327); assay: Fatty Acid Synthase (FASN) Inhibition Scintillation Proximity Assay; type: biochemical; settings: for IC50: mean where tested more than once, ~ = standard error of pIC50 larger than 0.5; for inhibition at 10 µM: read-out: FASN % Effect @1E−05M
T1 construct: 10 μL hFASN enzyme (full length, 300 ng, purified in house); made in house
T1 sequence (P49327 whole entry): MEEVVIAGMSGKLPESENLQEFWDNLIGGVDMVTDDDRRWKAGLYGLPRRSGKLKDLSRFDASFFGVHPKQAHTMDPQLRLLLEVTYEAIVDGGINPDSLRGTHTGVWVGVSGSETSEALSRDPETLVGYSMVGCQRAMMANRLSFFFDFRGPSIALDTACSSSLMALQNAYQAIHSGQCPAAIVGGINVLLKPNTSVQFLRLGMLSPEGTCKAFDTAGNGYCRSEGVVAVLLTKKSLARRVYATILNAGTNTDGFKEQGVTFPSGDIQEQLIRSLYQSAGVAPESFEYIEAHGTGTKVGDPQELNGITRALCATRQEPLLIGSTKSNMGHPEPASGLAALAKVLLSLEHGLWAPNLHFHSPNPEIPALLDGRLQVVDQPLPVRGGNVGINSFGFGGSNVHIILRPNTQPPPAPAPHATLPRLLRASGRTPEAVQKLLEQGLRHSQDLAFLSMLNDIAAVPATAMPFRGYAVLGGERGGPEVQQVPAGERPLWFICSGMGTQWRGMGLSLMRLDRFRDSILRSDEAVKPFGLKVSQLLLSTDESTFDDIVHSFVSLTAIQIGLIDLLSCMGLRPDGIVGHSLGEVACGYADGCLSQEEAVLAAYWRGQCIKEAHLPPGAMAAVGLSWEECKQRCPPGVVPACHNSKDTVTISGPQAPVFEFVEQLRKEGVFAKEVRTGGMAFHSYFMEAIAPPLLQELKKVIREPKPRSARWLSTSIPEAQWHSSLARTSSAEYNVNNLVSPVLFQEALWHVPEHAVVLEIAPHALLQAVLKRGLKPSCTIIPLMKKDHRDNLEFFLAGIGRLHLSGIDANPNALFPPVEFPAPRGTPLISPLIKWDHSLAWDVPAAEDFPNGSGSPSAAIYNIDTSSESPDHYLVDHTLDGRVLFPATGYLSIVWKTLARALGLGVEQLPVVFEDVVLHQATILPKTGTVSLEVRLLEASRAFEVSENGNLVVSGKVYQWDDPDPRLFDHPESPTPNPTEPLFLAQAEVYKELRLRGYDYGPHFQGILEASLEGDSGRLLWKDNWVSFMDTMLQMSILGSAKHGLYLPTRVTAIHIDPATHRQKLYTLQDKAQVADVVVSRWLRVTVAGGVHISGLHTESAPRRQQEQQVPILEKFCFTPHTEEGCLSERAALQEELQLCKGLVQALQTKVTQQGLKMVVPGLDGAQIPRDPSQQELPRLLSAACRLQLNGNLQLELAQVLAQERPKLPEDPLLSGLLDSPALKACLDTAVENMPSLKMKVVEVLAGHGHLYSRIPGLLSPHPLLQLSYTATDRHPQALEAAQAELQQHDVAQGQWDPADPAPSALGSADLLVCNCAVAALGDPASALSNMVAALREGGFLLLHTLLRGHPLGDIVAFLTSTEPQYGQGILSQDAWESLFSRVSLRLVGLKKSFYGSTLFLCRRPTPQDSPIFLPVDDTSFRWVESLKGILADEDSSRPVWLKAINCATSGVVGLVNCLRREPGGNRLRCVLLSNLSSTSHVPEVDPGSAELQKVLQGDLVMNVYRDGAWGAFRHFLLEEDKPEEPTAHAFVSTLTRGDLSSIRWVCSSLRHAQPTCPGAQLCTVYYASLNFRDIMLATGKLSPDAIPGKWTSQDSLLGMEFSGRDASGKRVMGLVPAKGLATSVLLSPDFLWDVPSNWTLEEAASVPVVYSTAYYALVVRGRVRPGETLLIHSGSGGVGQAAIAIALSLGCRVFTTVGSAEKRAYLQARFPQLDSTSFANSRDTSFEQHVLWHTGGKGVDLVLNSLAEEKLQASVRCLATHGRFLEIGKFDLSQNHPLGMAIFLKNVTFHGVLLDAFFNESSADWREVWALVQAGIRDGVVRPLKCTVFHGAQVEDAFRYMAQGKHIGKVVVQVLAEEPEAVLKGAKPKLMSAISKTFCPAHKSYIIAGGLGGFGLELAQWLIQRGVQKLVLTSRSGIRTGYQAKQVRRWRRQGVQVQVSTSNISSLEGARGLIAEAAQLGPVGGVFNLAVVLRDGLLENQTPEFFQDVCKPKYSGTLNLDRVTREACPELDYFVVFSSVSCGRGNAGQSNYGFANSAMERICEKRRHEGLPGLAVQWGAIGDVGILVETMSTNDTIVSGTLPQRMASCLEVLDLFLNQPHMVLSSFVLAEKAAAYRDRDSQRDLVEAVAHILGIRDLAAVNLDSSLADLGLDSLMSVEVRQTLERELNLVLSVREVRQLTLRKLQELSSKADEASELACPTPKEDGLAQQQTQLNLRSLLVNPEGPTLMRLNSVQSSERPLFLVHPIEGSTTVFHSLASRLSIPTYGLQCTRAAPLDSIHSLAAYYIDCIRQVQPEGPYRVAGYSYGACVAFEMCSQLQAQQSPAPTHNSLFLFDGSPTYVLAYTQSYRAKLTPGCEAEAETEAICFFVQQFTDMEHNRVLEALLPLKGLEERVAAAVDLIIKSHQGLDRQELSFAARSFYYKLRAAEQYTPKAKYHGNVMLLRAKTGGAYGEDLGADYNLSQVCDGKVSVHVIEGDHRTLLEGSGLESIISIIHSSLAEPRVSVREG
In short: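 Eight compound concentrations (0.01–30 μM) tested in pH 7.5 phosphate buffer with DTT; human full-length enzyme converted [3H]-acetyl-CoA plus malonyl-CoA, with NADPH, over 60 min at room temperature. Hydrophobic [3H]-palmitate detected by bead proximity scintillation imaging; control-normalised data fitted for IC50/pIC50.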

[2] = biological target: T2, FASN Keto-reductase Domain (Homo sapiens, UniProt P49327); assay: Fatty Acid Synthase Keto-Reductase Domain (FASN KR) Inhibition; type: biochemical; settings: mean where tested more than once; read-out: FASN K-R Domain pIC50 (converted)
T2 construct: 10 μL hFASN enzyme (full length, 300 ng, purified in house) and 360 μM NADPH; made in house
T2 sequence (P49327 whole entry, the tested form may be a part): as the sequence (P49327 whole entry) above
In short: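 Keto-reductase activity followed as NADPH consumption (A340 drop between 0 and 20 min, room temperature) using in-house full-length hFASN, 360 μM NADPH and ethyl acetoacetate substrate (180 mM stock), pH 7.5 phosphate buffer.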

A2780 ovarian cells [3] = assay: A2780 Ovarian Cell Proliferation Assay in Lipid Reduced Medium, without Palmitate; type: cell-based; settings: Homo sapiens, A2780; lipid reduced medium, without palmitate, 96 h, MTT; read-out: Proliferation A2780 w/o Palmitate pIC50 (converted)
In short: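 A2780 cells were seeded in 10% FCS medium and switched next day to 10% lipid-reduced serum without palmitate. Compounds at 0.01–30 μM were added with 0.2% DMSO, 0.2% fatty-acid-free BSA and 0.25% ethanol final. After 96 h, MTT absorbance at 544 nm was normalized to plate controls, and IC50/pIC50 came from a 4-parameter logistic fit.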

A2780 ovarian cells [4] = assay: A2780 Ovarian Cell Proliferation Assay in Lipid Reduced Medium, with Palmitate (control); type: cell-based; settings: Homo sapiens, A2780; lipid reduced medium, 25 μM palmitate, 96 h, MTT; read-out: Proliferation A2780 with Palmitate pIC50 (converted)
In short: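 Read-out was MTT absorbance at 544 nm after 96 h at 37 °C. Cells grown overnight in RPMI1640/10% FCS were moved to 10% lipid-reduced serum with compound plus palmitate (final 25 μM, 0.2% fatty-acid-free BSA, 0.2% DMSO). IC50 came from least-squares curve fitting, expressed as −log(IC50).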

Structure (SMILES)	IC50 [1]	inhibition at 10 µM [1]	IC50 [2]	IC50 (A2780 ovarian cells [3])	IC50 (A2780 ovarian cells [4])
Cc1ccc(C(=O)N2CCC(c3ccc(-c4cnn(C)c4)cc3)CC2)cc1NC(=O)c1ccc(C(C)C)cc1 [Compound 148, 4-isopropyl-N-(2-methyl-5-(4-(4-(1-methyl-1H-pyrazol-4-yl)phenyl)piperidine-1-carbonyl)phenyl)benzamide]	47.9 nM	102%	53.7 nM	89.1 nM	8320 nM
Cc1ccc(C(=O)N2CCC(c3ccc(-c4cnn(C)c4)cc3)CC2)cc1NC(=O)c1sccc1C [Compound 149, 3-methyl-N-(2-methyl-5-(4-(4-(1-methyl-1H-pyrazol-4-yl)phenyl)piperidine-1-carbonyl)phenyl)thiophene-2-carboxamide]	57.5 nM	103%	214 nM	457 nM	9550 nM
Cc1ccc(C(=O)N2CCC(c3ccc(-c4cnn(C)c4)cc3)CC2)cc1NC(=O)C1CCNCC1 [Compound 150, N-(2-methyl-5-(4-(4-(1-methyl-1H-pyrazol-4-yl)phenyl)piperidine-1-carbonyl)phenyl)piperidine-4-carboxamide]	43.7 nM	110%	155 nM	479 nM	> 10000 nM
Cc1ccc(C(=O)N2CCC(c3ccc(-c4cnn(C)c4)cc3)CC2)cc1NC(=O)C1CCCO1 (stereo not shown) [Compound 151, N-(2-methyl-5-(4-(4-(1-methyl-1H-pyrazol-4-yl)phenyl)piperidine-1-carbonyl)phenyl)tetrahydrofuran-2-carboxamide]	148 nM	101%	708 nM	1170 nM	> 10000 nM
Cc1ccc(C(=O)N2CCC(c3ccc(-c4cnn(C)c4)cc3)CC2)cc1NC(=O)c1cnc(N2CCOCC2)nc1 [Compound 152, N-(2-methyl-5-(4-(4-(1-methyl-1H-pyrazol-4-yl)phenyl)piperidine-1-carbonyl)phenyl)-2-morpholinopyrimidine-5-carboxamide]	21.9 nM	106%	17.4 nM	12.3 nM	7240 nM
CCC(CC)C(=O)Nc1cc(C(=O)N2CC(c3ccc(-c4cnn(C)c4)cc3)C2)ccc1C [Compound 153, 2-ethyl-N-(2-methyl-5-(3-(4-(1-methyl-1H-pyrazol-4-yl)phenyl)azetidine-1-carbonyl)phenyl)butanamide]	30.2 nM	102%	61.7 nM	38 nM	4680 nM
Cc1ccc(C(=O)N2CC(c3ccc(-c4cnn(C)c4)cc3)C2)cc1NC(=O)c1cnc(Cl)nc1 [Compound 154, 2-chloro-N-(2-methyl-5-(3-(4-(1-methyl-1H-pyrazol-4-yl)phenyl)azetidine-1-carbonyl)phenyl)pyrimidine-5-carboxamide]	26.9 nM	108%	105 nM	1350 nM	4070 nM
COc1ccc(C(=O)Nc2cc(C(=O)N3CCC(c4ccc(-c5cnn(C)c5)cc4)CC3)ccc2C)cc1Cl [Compound 155, 3-chloro-4-methoxy-N-(2-methyl-5-(4-(4-(1-methyl-1H-pyrazol-4-yl)phenyl)piperidine-1-carbonyl)phenyl)benzamide]	47.9 nM	98%	93.3 nM	85.1 nM	> 10000 nM
Cc1ccc(C(=O)N2CCC(c3ccc(-c4cnn(C)c4)cc3)CC2)cc1NC(=O)C(C)C [Compound 156, N-(2-methyl-5-(4-(4-(1-methyl-1H-pyrazol-4-yl)phenyl)piperidine-1-carbonyl)phenyl)isobutyramide]	107 nM	100%	263 nM	275 nM	> 10000 nM
Cc1ccc(C(=O)Nc2cc(C(=O)N3CCC(c4ccc(-c5cnn(C)c5)cc4)CC3)ccc2C)s1 [Compound 157, 5-methyl-N-(2-methyl-5-(4-(4-(1-methyl-1H-pyrazol-4-yl)phenyl)piperidine-1-carbonyl)phenyl)thiophene-2-carboxamide]	42.7 nM	104%	120 nM	115 nM	> 10000 nM
Cc1ccc(C(=O)N2CC(c3ccc(-c4cnn(C)c4)cc3)C2)cc1NC(=O)c1cnc(NC(C)C)nc1 [Compound 158, 2-(isopropylamino)-N-(2-methyl-5-(3-(4-(1-methyl-1H-pyrazol-4-yl)phenyl)azetidine-1-carbonyl)phenyl)pyrimidine-5-carboxamide]	23.4 nM	102%	37.2 nM	10 nM	> 10000 nM

Further lines, results first:

IC50 [1]	inhibition at 10 µM [1]	IC50 [2]	IC50 (A2780 ovarian cells [3])	IC50 (A2780 ovarian cells [4])	Structure (SMILES)
22.9 nM	104%	33.9 nM	~5.75 nM	> 10000 nM	Cc1ccc(C(=O)N2CC(c3ccc(-c4cnn(C)c4)cc3)C2)cc1NC(=O)c1cnc(N2CCOCC2)nc1 [Compound 159, N-(2-methyl-5-(3-(4-(1-methyl-1H-pyrazol-4-yl)phenyl)azetidine-1-carbonyl)phenyl)-2-morpholinopyrimidine-5-carboxamide]
40.7 nM	100%	91.2 nM	28.2 nM	6920 nM	Cc1ccc(C(=O)N2CCC(c3ccc(-c4cnn(C)c4)cc3)CC2)cc1NC(=O)c1ccc2[nH]ccc2c1 [Compound 160, N-(2-methyl-5-(4-(4-(1-methyl-1H-pyrazol-4-yl)phenyl)piperidine-1-carbonyl)phenyl)-1H-indole-5-carboxamide]
21.4 nM	101%	38.9 nM	24 nM	3720 nM	Cc1ccc(C(=O)N2CCC(c3ccc(-c4cnn(C)c4)cc3)CC2)cc1NC(=O)c1ccncc1F [Compound 161, 3-fluoro-N-(2-methyl-5-(4-(4-(1-methyl-1H-pyrazol-4-yl)phenyl)piperidine-1-carbonyl)phenyl)isonicotinamide]
20 nM	101%	32.4 nM	8.13 nM	~7590 nM	Cc1ccc(C(=O)N2CCC(c3ccc(-c4cnn(C)c4)cc3)CC2)cc1NC(=O)c1cnc(NC2CCC2)nc1 [Compound 162, 2-(cyclobutylamino)-N-(2-methyl-5-(4-(4-(1-methyl-1H-pyrazol-4-yl)phenyl)piperidine-1-carbonyl)phenyl)pyrimidine-5-carboxamide]
28.8 nM	105%	46.8 nM	13.2 nM	> 10000 nM	Cc1ccc(C(=O)N2CCC(c3ccc(-c4cnn(C)c4)cc3)CC2)cc1NC(=O)c1ccc(N2CCN[C@@H](CO)C2)nc1 [Compound 163, (3R)-6-(3-(hydroxymethyl)piperazin-1-yl)-N-(2-methyl-5-(4-(4-(1-methyl-1H-Pyrazol-4-yl)phenyl)piperidine-1-carbonyl)phenyl)nicotinamide]
61.7 nM	113%	126 nM	72.4 nM	> 10000 nM	CCN1CCC(C(=O)Nc2cc(C(=O)N3CCC(c4ccc(-c5cnn(C)c5)cc4)CC3)ccc2C)CC1 [Compound 168, 1-ethyl-N-(2-methyl-5-(4-(4-(1-methyl-1H-pyrazol-4-yl)phenyl)piperidine-1-carbonyl)phenyl)piperidine-4-carboxamide]
70.8 nM	106%	191 nM	77.6 nM	> 10000 nM	Cc1ccc(C(=O)N2CCC(c3ccc(-c4cnn(C)c4)cc3)CC2)cc1NC(=O)C1CCN(C)CC1 [Compound 169, 1-methyl-N-(2-methyl-5-(4-(4-(1-methyl-1H-pyrazol-4-yl)phenyl)piperidine-1-carbonyl)phenyl)piperidine-4-carboxamide]
57.5 nM	112%	339 nM	302 nM	> 10000 nM	Cc1ccc(C(=O)N2CCC(c3ccc(-c4cnn(C)c4)cc3)CC2)cc1NC(=O)C1CCNC1 (stereo not shown) [Compound 170, N-(2-methyl-5-(4-(4-(1-methyl-1H-pyrazol-4-yl)phenyl)piperidine-1-carbonyl)phenyl)pyrrolidine-3-carboxamide]
891 nM	84%	1000 nM	1200 nM	> 10000 nM	Cc1ccc(C(=O)N2CCC(c3ccc(-c4cnn(C)c4)cc3)CC2)cc1NC(=O)[C@@H]1CCCN1 [Compound 171, (S)—N-(2-methyl-5-(4-(4-(1-methyl-1H-pyrazol-4-yl)phenyl)piperidine-1-carbonyl)phenyl)pyrrolidine-2-carboxamide]
